The source of these data is patent publication US12240844B2 (Voronoi, Inc., priority 2019, dated 2025).

A value given as a limit tells only on which side of the number the result lay.

The subject of assay [1] is THP-1. Kind of assay: THP-1 GI50 (Table 4, method not given). The class given is cell-based. The settings on record: Homo sapiens; THP-1 cells.
For assay [2], the target named is T1, LRRK2, LRRK2 (G2019S), DYRK1, CLK1 and TTK kinases (Homo sapiens, UniProt P49759).
T1 construct: CLK1 IC50 (marked with *); other: CLK1; Kinase HotSpot service (Reaction Biology), ATP 10 uM
T1 sequence (P49759 whole entry, stated change not applied): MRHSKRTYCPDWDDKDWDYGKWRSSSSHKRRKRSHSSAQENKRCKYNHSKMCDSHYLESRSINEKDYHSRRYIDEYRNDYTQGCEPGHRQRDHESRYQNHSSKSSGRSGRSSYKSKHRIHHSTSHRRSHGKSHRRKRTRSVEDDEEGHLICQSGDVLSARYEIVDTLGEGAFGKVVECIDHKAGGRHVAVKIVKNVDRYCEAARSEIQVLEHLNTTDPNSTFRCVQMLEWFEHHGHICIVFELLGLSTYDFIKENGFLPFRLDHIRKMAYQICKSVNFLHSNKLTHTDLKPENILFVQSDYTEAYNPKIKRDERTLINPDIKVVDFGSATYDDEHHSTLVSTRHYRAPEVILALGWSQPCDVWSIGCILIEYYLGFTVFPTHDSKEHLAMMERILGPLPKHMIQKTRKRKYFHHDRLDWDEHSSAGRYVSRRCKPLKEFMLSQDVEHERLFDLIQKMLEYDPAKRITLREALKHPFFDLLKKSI
Put plainly: Enzyme IC50 by Kinase HotSpot service (Reaction Biology Corporation), values marked with *. Type of assay: biochemical. The settings on record: CLK1, ATP 10 uM. In outline:
(§1)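 Radiometric-service kinase assays (Reaction Biology HotSpot protocol) run at 10 uM ATP under uniform conditions. Compounds tested as 3-fold dilution series from a top concentration of […] to give IC50.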

The target of assay [3] is T2, LRRK2, LRRK2 (G2019S), DYRK1, CLK1 and TTK kinases (Homo sapiens, UniProt Q5S007).
T2 construct: LRRK2 IC50 (marked with *); other: LRRK2; Kinase HotSpot service (Reaction Biology), ATP 10 uM
T2 sequence (Q5S007 whole entry G2019S): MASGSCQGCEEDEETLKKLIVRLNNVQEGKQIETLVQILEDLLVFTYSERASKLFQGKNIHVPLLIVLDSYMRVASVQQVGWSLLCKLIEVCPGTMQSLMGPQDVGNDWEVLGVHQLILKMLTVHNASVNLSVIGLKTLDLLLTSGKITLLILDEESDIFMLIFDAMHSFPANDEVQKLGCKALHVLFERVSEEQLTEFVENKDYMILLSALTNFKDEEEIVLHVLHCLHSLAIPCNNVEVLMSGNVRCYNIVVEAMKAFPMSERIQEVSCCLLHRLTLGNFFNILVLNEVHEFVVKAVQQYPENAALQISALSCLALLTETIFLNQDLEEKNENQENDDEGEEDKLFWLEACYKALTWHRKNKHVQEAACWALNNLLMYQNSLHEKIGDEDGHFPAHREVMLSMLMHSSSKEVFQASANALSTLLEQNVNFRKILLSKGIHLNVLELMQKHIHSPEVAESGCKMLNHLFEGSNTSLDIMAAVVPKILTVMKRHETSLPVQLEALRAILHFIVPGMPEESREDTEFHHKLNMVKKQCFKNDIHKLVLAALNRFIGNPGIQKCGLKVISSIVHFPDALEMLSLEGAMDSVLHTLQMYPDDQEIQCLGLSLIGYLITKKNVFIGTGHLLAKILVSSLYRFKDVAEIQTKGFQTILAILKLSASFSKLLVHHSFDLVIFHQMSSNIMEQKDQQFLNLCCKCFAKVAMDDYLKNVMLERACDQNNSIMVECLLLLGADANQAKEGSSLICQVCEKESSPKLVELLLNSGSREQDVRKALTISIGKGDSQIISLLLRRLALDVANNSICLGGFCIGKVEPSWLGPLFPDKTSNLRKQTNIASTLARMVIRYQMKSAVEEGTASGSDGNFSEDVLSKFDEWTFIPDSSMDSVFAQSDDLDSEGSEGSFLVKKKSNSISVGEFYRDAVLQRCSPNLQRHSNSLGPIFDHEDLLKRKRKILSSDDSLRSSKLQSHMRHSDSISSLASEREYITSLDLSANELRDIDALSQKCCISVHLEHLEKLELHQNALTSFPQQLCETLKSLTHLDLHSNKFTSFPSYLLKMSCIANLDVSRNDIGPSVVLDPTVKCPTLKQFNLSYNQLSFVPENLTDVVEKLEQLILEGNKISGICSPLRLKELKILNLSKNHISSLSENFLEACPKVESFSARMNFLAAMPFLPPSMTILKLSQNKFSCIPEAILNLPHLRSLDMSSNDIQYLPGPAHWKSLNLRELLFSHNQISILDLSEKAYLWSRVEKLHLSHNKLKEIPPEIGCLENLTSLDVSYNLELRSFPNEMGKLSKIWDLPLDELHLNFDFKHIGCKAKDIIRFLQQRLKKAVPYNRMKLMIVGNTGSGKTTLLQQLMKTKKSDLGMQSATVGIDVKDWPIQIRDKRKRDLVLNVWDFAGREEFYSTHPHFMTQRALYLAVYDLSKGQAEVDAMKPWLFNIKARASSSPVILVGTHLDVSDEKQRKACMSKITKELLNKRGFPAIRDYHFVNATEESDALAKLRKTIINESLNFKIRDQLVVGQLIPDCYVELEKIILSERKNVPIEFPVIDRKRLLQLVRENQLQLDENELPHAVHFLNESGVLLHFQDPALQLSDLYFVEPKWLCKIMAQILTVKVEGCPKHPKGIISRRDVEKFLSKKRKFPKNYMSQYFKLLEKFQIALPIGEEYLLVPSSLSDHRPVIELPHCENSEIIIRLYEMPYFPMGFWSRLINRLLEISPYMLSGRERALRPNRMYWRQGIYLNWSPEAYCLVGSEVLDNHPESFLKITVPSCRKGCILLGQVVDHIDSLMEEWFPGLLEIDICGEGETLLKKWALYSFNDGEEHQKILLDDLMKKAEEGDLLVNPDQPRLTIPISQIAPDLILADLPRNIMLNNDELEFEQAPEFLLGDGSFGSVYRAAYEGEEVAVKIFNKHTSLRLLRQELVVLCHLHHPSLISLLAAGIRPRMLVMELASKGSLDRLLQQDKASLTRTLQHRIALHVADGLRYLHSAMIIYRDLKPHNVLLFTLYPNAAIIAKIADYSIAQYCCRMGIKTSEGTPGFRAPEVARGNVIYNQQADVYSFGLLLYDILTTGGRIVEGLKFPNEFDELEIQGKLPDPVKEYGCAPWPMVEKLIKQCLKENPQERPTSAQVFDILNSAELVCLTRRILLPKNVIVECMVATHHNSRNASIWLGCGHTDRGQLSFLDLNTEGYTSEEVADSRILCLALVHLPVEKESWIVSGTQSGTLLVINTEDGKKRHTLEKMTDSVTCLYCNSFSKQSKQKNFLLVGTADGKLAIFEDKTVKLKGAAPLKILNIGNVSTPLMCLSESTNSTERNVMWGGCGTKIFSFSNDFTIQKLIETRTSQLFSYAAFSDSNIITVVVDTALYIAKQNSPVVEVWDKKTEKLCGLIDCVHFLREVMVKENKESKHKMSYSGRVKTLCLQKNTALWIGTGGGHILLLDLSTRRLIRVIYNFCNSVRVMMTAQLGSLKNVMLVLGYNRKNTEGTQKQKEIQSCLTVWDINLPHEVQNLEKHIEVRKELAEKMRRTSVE
The description is as above. Type of assay: biochemical. The settings on record: LRRK2, ATP 10 uM. In outline: as §1

For `CCNc1cc(Nc2ccc(C(=O)N3CCC(N4CCOCC4)CC3)c3c2OCO3)nc2[nH]cc(C(F)(F)F)c12` [Example 37, (7-((4-(ethylamino)-3-(trifluoromethyl)-1H-pyrrolo[2,3-b]pyridin-6-yl)amino)benzo[d][1,3]dioxol-4-yl)(4-morpholinopiperidin-1-yl)methanone], it took 14400 nM to inhibit growth in assay [1] by half (GI50).

In assay [2], `O=C(c1ccc(Nc2cc(C3CC3)c3c(C(F)(F)F)c[nH]c3n2)c2c1CCO2)N1CCOCC1` [Example 91, (7-((4-cyclopropyl-3-(trifluoromethyl)-1H-pyrrolo[2,3-b]pyridin-6-yl)amino)-2,3-dihydrobenzofuran-4-yl)(morpholino) methanone] displayed an IC50 of under 100 nM.

For `CNc1cc(Nc2ccc(S(=O)(=O)N3CCC(N4CCOCC4)CC3)cc2OC)nc2[nH]cc(C(F)(F)F)c12` [Example 184, N^6-(2-methoxy-4-((4-morpholinopiperidin-1-yl)sulfonyl)phenyl)-N^4-methyl-3-(trifluoromethyl)-1H-pyrrolo[2,3-b]pyridine-4,6-diamine], the IC50 in assay [2] and in assay [3] was under 100 nM each time.

The molecule `CCNc1cc(Nc2ccc(C(=O)N3C[C@@H]4C[C@H]3CO4)c3c2OCCO3)nc2[nH]cc(C(F)(F)F)c12` [Example 44, ((1S,4S)-2-oxa-5-azabicyclo[2.2.1]heptan-5-yl)(8-((4-(ethylamino)-3-(trifluoromethyl)-1H-pyrrolo[2,3-b]pyridin-6-yl)amino)-2,3-dihydrobenzo[b] [1,4]dioxin-5-yl)methanone] came in with a GI50 in assay [1] of 146000 nM.

Molecule `COCCNc1cc(Nc2ccc(P3(=O)CCN(C4CC4)CC3)cc2OC)nc2[nH]cc(C(F)(F)F)c12` [Example 207, 1-cyclopropyl-4-(3-methoxy-4-((4-((2-methoxyethyl)amino)-3-(trifluoromethyl)-1H-pyrrolo[2,3-b]pyridin-6-yl)amino)phenyl)-1,4-azaphosphinane 4-oxide] came in with a GI50 in assay [1] of 9390 nM.

`CCNc1cc(Nc2ccc(P3(=O)CCN(C(C)=O)CC3)cc2OC)nc2[nH]cc(C(F)(F)F)c12` [Example 42, 1-(4-(4-((4-(ethylamino)-3-(trifluoromethyl)-1H-pyrrolo[2,3-b]pyridin-6-yl)amino)-3-methoxyphenyl)-4-oxido-1,4-azaphosphinan-1-yl)ethan-1-one]: in assay [1], the concentration for 50% growth inhibition (GI50) came out at 16300 nM.

`O=C(c1ccc(Nc2cc(C3CC3)c3c(C(F)(F)F)c[nH]c3n2)c2c1CCO2)N1CC[C@@H](N2CCOCC2)C1` [Example 238, (R)-(7-((4-cyclopropyl-3-(trifluoromethyl)-1H-pyrrolo[2,3-b]pyridin-6-yl)amino)-2,3-dihydrobenzofuran-4-yl)(3-morpholinopyrrolidin-1-yl)methanone]: the values for the IC50 in assay [2] and in assay [3] were under 100 nM and 101 to 300 nM, respectively.

On to `O=C(c1ccc(Nc2cc(C3CC3)c3c(C(F)(F)F)c[nH]c3n2)c2c1CCO2)N1CC[C@H](N2CCOCC2)C1` [Example 237, (S)-(7-((4-cyclopropyl-3-(trifluoromethyl)-1H-pyrrolo[2,3-b]pyridin-6-yl)amino)-2,3-dihydrobenzofuran-4-yl)(3-morpholinopyrrolidin-1-yl)methanone], for which the IC50 was under 100 nM in assay [2] and 101 to 300 nM in assay [3].

Usually GI50 stands for the concentration at which growth is held to half of that of the control. The IC50 is the concentration at which inhibition is half-maximal. The low end stands for greater potency, the high end for weaker potency.
